In patent publication US12509459B2, “Inhibitors of NLRP3 inflammasome” (BioAge Labs, Inc., priority 2024, dated 2025):

Each compound was assayed against NLRP3 (Homo sapiens, UniProt Q96P20) (assay: THP-1 cell-based NLRP3 activation assay). Conditions: PMA-differentiated THP-1 cells, LPS 100 ng/mL then 10 μM nigericin.
Design: endogenous in cells; host or cells: THP-1 cells (PMA-differentiated, LPS-primed, nigericin-stimulated)
Experimental: THP-1 cells are cultured in complete media (CM) until they reach logarithmic growth and achieve a viability >90%. CM is composed of RPMI-1640 (+Glutamax)/10% fetal bovine serum/55 μM β-mercaptoethanol/pen/strep. Cells are spun down and resuspended to 1,000,000 cells/mL in CM containing either 20 nM or 500 nM PMA. 150,000 cells (150 μL) are then added to each well of a 96-well TC plate and incubated for either 24 hr or 3 hr, respectively, in a standard cell culture incubator (37° C.; 5% CO2). After this incubation, the plate is tilted and media carefully removed. 200 μL of CM containing 100 ng/mL LPS is then added to the wells and the cells incubated an additional 3 hrs. The media is again removed and replaced with Opti-Mem medium containing pre-determined dilutions of test compounds in replicate wells. After a 30 min incubation, 10 μM nigericin (final concentration) in Opti-Mem medium with the corresponding concentration of compound is added to the wells for an additional 1 hr. Positive control wells contain 10 μM nigericin in Opti-Mem in the absence of test compound, while negative control wells contain Opti-Mem only. […] Once supernatants are removed, the relative viability of adherent cells in the 96-well TC plate are determined using a CellTiter-Glo® luminescent cell viability assay (Promega).

Sequence of NLRP3 (Q96P20 whole entry): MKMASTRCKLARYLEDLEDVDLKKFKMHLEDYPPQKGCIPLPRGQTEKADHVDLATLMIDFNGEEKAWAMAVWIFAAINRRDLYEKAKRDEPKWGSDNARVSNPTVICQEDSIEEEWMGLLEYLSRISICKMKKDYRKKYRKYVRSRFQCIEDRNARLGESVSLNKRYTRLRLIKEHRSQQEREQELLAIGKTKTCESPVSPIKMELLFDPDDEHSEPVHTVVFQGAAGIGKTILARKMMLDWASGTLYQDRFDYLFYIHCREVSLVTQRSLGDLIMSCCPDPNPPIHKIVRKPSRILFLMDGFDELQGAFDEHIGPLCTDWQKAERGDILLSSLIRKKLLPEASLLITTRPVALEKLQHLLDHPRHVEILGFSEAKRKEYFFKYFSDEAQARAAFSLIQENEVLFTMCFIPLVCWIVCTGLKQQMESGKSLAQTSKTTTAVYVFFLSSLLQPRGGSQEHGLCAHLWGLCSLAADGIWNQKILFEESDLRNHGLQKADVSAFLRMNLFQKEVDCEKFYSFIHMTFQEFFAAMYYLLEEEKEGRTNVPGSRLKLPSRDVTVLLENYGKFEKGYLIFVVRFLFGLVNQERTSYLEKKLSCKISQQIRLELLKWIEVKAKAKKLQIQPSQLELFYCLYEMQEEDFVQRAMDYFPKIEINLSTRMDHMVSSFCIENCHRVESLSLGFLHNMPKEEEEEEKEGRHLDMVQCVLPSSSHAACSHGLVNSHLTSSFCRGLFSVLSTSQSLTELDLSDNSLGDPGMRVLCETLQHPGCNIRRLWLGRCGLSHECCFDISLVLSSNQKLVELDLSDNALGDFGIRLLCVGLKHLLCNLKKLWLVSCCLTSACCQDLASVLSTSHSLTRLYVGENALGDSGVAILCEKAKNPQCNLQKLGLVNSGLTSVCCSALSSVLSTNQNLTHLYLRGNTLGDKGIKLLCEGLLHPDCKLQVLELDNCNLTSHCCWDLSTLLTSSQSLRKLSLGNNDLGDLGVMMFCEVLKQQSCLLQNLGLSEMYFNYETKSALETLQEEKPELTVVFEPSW

CCOc1cc(C(=O)N(CCO)Cc2cnc(C)c3cn[nH]c23)ccc1-c1cccc(F)c1 [Compound 051] and CCOc1cc(C(=O)N(Cc2cnc(C)c3cn[nH]c23)CC(C)(C)O)ccc1-c1cccc(F)c1 [Compound 053] cannot be ordered by IC50: < 100 nM for the first, < 100 nM for the second.

First: CCOc1cc(C(=O)N(Cc2cnc(C)c3cn[nH]c23)C(C)CO)ccc1-c1cccc(F)c1 (centres unmarked) [Compound 052]
Second: CCOc1cc(C(=O)N(C[C@@H](C)O)[C@H](C)c2cnc(C)c3cn[nH]c23)ccc1-c1cccc(F)c1 [Compound 058]
The IC50 of the first is higher: > 15000 nM for the first, < 100 nM for the second. The second is the more potent here.

First: CCOc1cc(C(=O)N(Cc2cnc(C)c3cn[nH]c23)C2COC2)ccc1-c1cccc(F)c1 [Compound 054]
Second: CCOc1cc(C(=O)N(Cc2cnc(C)c3cn[nH]c23)[C@H]2CC[C@@H]2O)ccc1-c1cccc(F)c1 [Compound 056]
The IC50 of the first is higher: > 15000 nM for the first, < 100 nM for the second.

CCOc1cc(C(=O)N(CCN)Cc2cncc3cn[nH]c23)ccc1-c1cccc(F)c1 [Compound 055] and CCOc1cc(C(=O)N(CCNC)Cc2cncc3cn[nH]c23)ccc1-c1cccc(F)c1 [Compound 116] cannot be ordered by IC50: < 100 nM for the first, < 100 nM for the second.

Compared with CCOc1cc(C(=O)N(Cc2cnc(C)c3cn[nH]c23)[C@@H]2CC[C@H]2O)ccc1-c1cccc(F)c1 [Compound 057], CCOc1cc(C(=O)N(C)[C@H](c2cnc(C)c3cn[nH]c23)C2CNC2)ccc1-c1cccc(F)c1 [Compound 072] is lower in IC50: 100 to 500 nM for the first, < 100 nM for the second.

First: CCOc1cc(C(=O)N(C[C@H](C)O)[C@H](C)c2cnc(C)c3cn[nH]c23)ccc1-c1cccc(F)c1 [Compound 059]
Second: CCOc1cc(C(=O)N(C[C@@H](C)O)[C@@H](C)c2cnc(C)c3cn[nH]c23)ccc1-c1cccc(F)c1 [Compound 060]
The IC50 of the first is lower: 1000 to 15000 nM for the first, > 15000 nM for the second. The first is the more potent here.

Going from CCOc1cc(C(=O)N(C[C@H](C)O)[C@@H](C)c2cnc(C)c3cn[nH]c23)ccc1-c1cccc(F)c1 [Compound 061] to CCOc1cc(C(=O)N(CC(C)(C)O)C(C)c2cnc(C)c3cn[nH]c23)ccc1-c1cccc(F)c1 (centres unmarked) [Compound 062], the IC50 falls from > 15000 nM to < 100 nM.

CCOc1cc(C(=O)N(C)[C@H](CCNCCF)c2cncc3cn[nH]c23)ccc1-c1cccc(F)c1 [Compound 063] and CCOc1cc(C(=O)N(C)[C@H](CCN(C)CCF)c2cncc3cn[nH]c23)ccc1-c1cccc(F)c1 [Compound 095] cannot be ordered by IC50: < 100 nM for the first, < 100 nM for the second.

CCOc1cc(C(=O)N(C)[C@H](CCN(CCF)CCF)c2cncc3cn[nH]c23)ccc1-c1cccc(F)c1 [Compound 064] and CCOc1cc(C(=O)N(C)[C@H](CCN(CC)CC)c2cncc3cn[nH]c23)ccc1-c1cccc(F)c1 [Compound 103] cannot be ordered by IC50: < 100 nM for the first, < 100 nM for the second.

CCOc1cc(C(=O)N(C)[C@H](c2cnc(C)c3cn[nH]c23)C2CN(C)C2)ccc1-c1cccc(F)c1 [Compound 065] and CCOc1cc(C(=O)N(C)[C@@H](c2cnc(C)c3cn[nH]c23)C2CN(C)C2)ccc1-c1cccc(F)c1 [Compound 071] cannot be ordered by IC50: < 100 nM for the first, < 100 nM for the second.

CCOc1cc(C(=O)N(C)C(CCN(C)CC)c2cncc3cn[nH]c23)ccc1-c1cccc(F)c1 (centres unmarked) [Compound 066] and CCOc1cc(C(=O)N(C)[C@H](CCN(C)CC(F)F)c2cncc3cn[nH]c23)ccc1-c1cccc(F)c1 [Compound 094] cannot be ordered by IC50: < 100 nM for the first, < 100 nM for the second.

CCOc1cc(C(=O)N(C)[C@H](CCN(C)CCF)c2cncc3cn[nH]c23)ccc1-c1cccc(Cl)c1 [Compound 067] and CCOc1cc(C(=O)N(C)[C@H](CCN(C)C)c2cncc3cn[nH]c23)ccc1-c1cccc(Cl)c1 [Compound 098] cannot be ordered by IC50: < 100 nM for the first, < 100 nM for the second.

CCOc1cc(C(=O)N(C)[C@H](CCN(C)C)c2cnc(CO)c3cn[nH]c23)ccc1-c1cccc(Cl)c1 [Compound 068] and CCOc1cc(C(=O)N(C)[C@H](CCN(C)C)c2cnc(CO)c3cn[nH]c23)ccc1-c1cccc(F)c1 [Compound 099] cannot be ordered by IC50: < 100 nM for the first, < 100 nM for the second.

CCOc1cc(C(=O)N(C)[C@H](CCN2CC(F)C2)c2cncc3cn[nH]c23)ccc1-c1cccc(F)c1 [Compound 070] and CCOc1cc(C(=O)N(C)[C@H](CCN2C[C@@H](F)[C@@H](F)C2)c2cncc3cn[nH]c23)ccc1-c1cccc(F)c1 [Compound 086] cannot be ordered by IC50: < 100 nM for the first, < 100 nM for the second.

CN(C)CC[C@H](c1cncc2cn[nH]c12)N(C)C(=O)c1ccc(-c2ccccc2)c(OC2CC2)c1 [Compound 073] and CN(C)CC[C@H](c1cncc2cn[nH]c12)N(C)C(=O)c1ccc(-c2cccc(Cl)c2)c(OC2CC2)c1 [Compound 102] cannot be ordered by IC50: < 100 nM for the first, < 100 nM for the second.

CCOc1cc(C(=O)N(C)[C@H](CCN(C)C)c2cnc(C)c3cn[nH]c23)ccc1-c1ccccc1 [Compound 074] and CCOc1cc(C(=O)N(C)[C@H](CCN(C)C)c2cnc(C)c3cn[nH]c23)ccc1-c1cccc(F)c1 [Compound 075] cannot be ordered by IC50: < 100 nM for the first, < 100 nM for the second.

CCOc1cc(C(=O)N(C)[C@H](CCN(C)C)c2cnc(C)c3cn[nH]c23)ccc1-c1cccc(Cl)c1 [Compound 076] and CCOc1cc(C(=O)N(C)[C@H](CCN(C)C)c2cnc(C)c3cn[nH]c23)ccc1-c1cccc(C)c1 [Compound 084] cannot be ordered by IC50: < 100 nM for the first, < 100 nM for the second.

CCOc1cc(C(=O)N(C)[C@H](CCN2CCC2)c2cncc3cn[nH]c23)ccc1-c1cccc(F)c1 [Compound 077] and CCOc1cc(C(=O)N(C)[C@H](CCN2CCCC2)c2cncc3cn[nH]c23)ccc1-c1cccc(F)c1 [Compound 104] cannot be ordered by IC50: < 100 nM for the first, < 100 nM for the second.

Compared with CCOc1cc(C(=O)N(C)[C@@H](c2cnc(C)c3cn[nH]c23)C2CNC2)ccc1-c1cccc(F)c1 [Compound 078], CCOc1cc(C(=O)N(C)[C@H](c2cncc3cn[nH]c23)C2CNC2)ccc1-c1cccc(F)c1 [Compound 092] is higher in IC50: < 100 nM for the first, 100 to 500 nM for the second.

CCOc1cc(C(=O)N(C)[C@@H](c2cncc3cn[nH]c23)C2CN(C)C2)ccc1-c1cccc(F)c1 [Compound 079] and CCOc1cc(C(=O)N(C)[C@@H](c2cncc3cn[nH]c23)[C@@H]2CCN(C)C2)ccc1-c1cccc(F)c1 [Compound 081] cannot be ordered by IC50: < 100 nM for the first, < 100 nM for the second.

C=CC(=O)NCC[C@H](c1cncc2cn[nH]c12)N(C)C(=O)c1ccc(-c2cccc(F)c2)c(OCC)c1 [Compound 080] and CCOc1cc(C(=O)N(C)[C@H](CCN2CC(F)(F)C2)c2cncc3cn[nH]c23)ccc1-c1cccc(F)c1 [Compound 101] cannot be ordered by IC50: < 100 nM for the first, < 100 nM for the second.

CCOc1cc(C(=O)N(C)[C@@H](c2cncc3cn[nH]c23)[C@H]2CCN(C)C2)ccc1-c1cccc(F)c1 [Compound 082] and CCOc1cc(C(=O)N(C)[C@@H](c2cncc3cn[nH]c23)C2CNC2)ccc1-c1cccc(F)c1 [Compound 097] cannot be ordered by IC50: < 100 nM for the first, < 100 nM for the second.

CCOc1cc(C(=O)N(C)[C@H](CCN(C)C)c2cnc(C)c3cn[nH]c23)ccc1-c1cc(Cl)cc(Cl)c1 [Compound 083] and CCOc1cc(C(=O)N(C)[C@H](CCN(C)C)c2cncc3cn[nH]c23)ccc1-c1cc(Cl)cc(Cl)c1 [Compound 090] cannot be ordered by IC50: < 100 nM for the first, < 100 nM for the second.

CCOc1cc(C(=O)N(C)[C@H](CCN(C)C)c2cncc3cn[nH]c23)ccc1-c1cccc(C)c1 [Compound 091] and CCOc1cc(C(=O)N(C)[C@H](CCN2C[C@@H](F)[C@H](F)C2)c2cncc3cn[nH]c23)ccc1-c1cccc(F)c1 [Compound 093] cannot be ordered by IC50: < 100 nM for the first, < 100 nM for the second.

CCOc1cc(C(=O)N(C)[C@H](CCN2CCC(F)(F)C2)c2cncc3cn[nH]c23)ccc1-c1cccc(F)c1 [Compound 100] and CCOc1cc(C(=O)N(CCN2CCC(F)(F)C2)Cc2cncc3cn[nH]c23)ccc1-c1cccc(F)c1 [Compound 115] cannot be ordered by IC50: < 100 nM for the first, < 100 nM for the second.

CCOc1cc(C(=O)N(CCN2C[C@H](F)C[C@H](F)C2)Cc2cncc3cn[nH]c23)ccc1-c1cccc(F)c1 [Compound 106] and CCOc1cc(C(=O)N(CCN2C[C@@H](F)C[C@H](F)C2)Cc2cncc3cn[nH]c23)ccc1-c1cccc(F)c1 [Compound 111] cannot be ordered by IC50: < 100 nM for the first, < 100 nM for the second.

CCOc1cc(C(=O)N(CCN2C[C@@H](F)[C@H](F)C2)Cc2cncc3cn[nH]c23)ccc1-c1cccc(F)c1 [Compound 107] and CCOc1cc(C(=O)N(CCN2C[C@@H](F)[C@@H](F)C2)Cc2cncc3cn[nH]c23)ccc1-c1cccc(F)c1 [Compound 108] cannot be ordered by IC50: < 100 nM for the first, < 100 nM for the second.

CCOc1cc(C(=O)N(CCN2CCC(F)C2)Cc2cncc3cn[nH]c23)ccc1-c1cccc(F)c1 (centres unmarked) [Compound 109] and CCOc1cc(C(=O)N(CCN2CCCC(F)C2)Cc2cncc3cn[nH]c23)ccc1-c1cccc(F)c1 (centres unmarked) [Compound 114] cannot be ordered by IC50: < 100 nM for the first, < 100 nM for the second.

CCOc1cc(C(=O)N(CCN2CCC(F)CC2)Cc2cncc3cn[nH]c23)ccc1-c1cccc(F)c1 [Compound 110] and CCOc1cc(C(=O)N(CCN2CCCC2)Cc2cncc3cn[nH]c23)ccc1-c1cccc(F)c1 [Compound 119] cannot be ordered by IC50: < 100 nM for the first, < 100 nM for the second.

CCOc1cc(C(=O)N(CCN2CCCCC2)Cc2cncc3cn[nH]c23)ccc1-c1ccccc1 [Compound 112] and CCOc1cc(C(=O)N(CCN2CCCCC2)Cc2cncc3cn[nH]c23)ccc1-c1cccc(F)c1 [Compound 117] cannot be ordered by IC50: < 100 nM for the first, < 100 nM for the second.

First: CCOc1cc(C(=O)N(CCN2CCCC(F)(F)C2)Cc2cncc3cn[nH]c23)ccc1-c1cccc(F)c1 [Compound 113]
Second: CCOc1cc(CN(CCN2CCOCC2)Cc2cncc3cn[nH]c23)ccc1-c1cccc(F)c1 [Compound 118]
The IC50 of the first is lower: < 100 nM for the first, 100 to 500 nM for the second. The first is the more potent here.
